The results in this text go back to patent US20220304978A1, “INHIBITING MESANGIAL CELL ACTIVATION” (Chinook Therapeutics, Inc., priority 2019, published 2022).

In this test the test system is IL-6 production in primary human mesangial cells. Put plainly: ET-1 induced IL-6 production in HRMCs (ELISA). The class given is cell-based.

Positions of bridges follow the written chain, without caps; N, C: chain ends. No end group written: not given here.

With “ET-1: endothelin 1 (ET-1), used to stimulate primary human mesangial cells (CSCSSLMDKECVYFCHLDIIW; disulfide 1-15, 3-11; ends not checked; UniProt P05305 53-73, looked up)”, the “increase in IL-6 production by primary human mesangial cells exposed to ET-1” value (48 hours) is around 6 fold and the “increase in IL-6 production by primary human mesangial cells exposed to ET-1” value (72 hours) is around 2.2 fold.
